≈ marks a conversion by molar mass, not a printed value.
Columns and labels:
standard strains = assay: Antimicrobial activity against set of bacterial and fungal strains; format: cell-based; details: for MIC: range over standard strains
Protocol: (§1) The antimicrobial activity of the compounds was tested on Gram-positive bacteria (Staphylococcus aureus NCTC 4163, Staphylococcus aureus ATCC 25923, Staphylococcus aureus ATCC 6538, Staphylococcus aureus ATCC 29213, Staphylococcus epidermidis ATCC 12228, Staphylococcus epidermidis ATCC 35984, Enterococcus faecalis ATCC 29212, Bacillus subtilis ATCC 6633, Bacillus cereus ATCC 11778, Micrococcus luteus ATCC 9341, Micrococcus luteus ATCC 10240); Gram-negative rods (Escherichia coli ATCC 10538, Escherichia coli ATCC 25922, Escherichia coli NCTC 8196, Proteus vulgaris NCTC 4635, Pseudomonas aeruginosa ATCC 15442, Pseudomonas aeruginosa NCTC 6749, Pseudomonas aeruginosa ATCC 27863, Bordetella bronchiseptica ATCC 4617) and yeasts (Candida albicans ATCC 10231, Candida albicans ATCC 90028, Candida parapsilosis ATCC 22019). Other microorganisms used were obtained from the collection of the Department of Pharmaceutical Microbiology, Medical University of Warsaw, Poland.
Antibacterial activity was examined by the disc-diffusion method under standard conditions using Mueller-Hinton II agar medium (Becton Dickinson) according to CLSI (previously NCCLS) guidelines. Antifungal activities were assessed using Mueller-Hinton agar + 2% glucose and 0.5 µg/mL Methylene Blue Dye Medium. Sterile filter paper discs (9 mm diameter, Whatman No 3 chromatography paper) were dripped with tested compound solutions (in DMSO) to load 400 μg of a given compound per disc. Dry discs were placed on the surface of appropriate agar medium. The results (diameter of the growth inhibition zone) were read after 18 h of incubation at 35 °C. Minimal Inhibitory Concentration (MIC) was tested by the twofold serial microdilution method (in 96-well microtiter plates) using Mueller-Hinton Broth medium (Beckton Dickinson) for bacteria or RPMI-1640 medium for Candida species according to CLSI guidelines. […] Minimal inhibitory concentrations (the lowest concentration of a tested agent that prevents visible growth of a microorganism) were read after 18 h (bacteria) or 24 h (yeasts) of incubation at 35 °C.

[1] = system: S. epidermidis MRSE 409/11; assay: MIC, hospital methicillin-resistant strain; format: cell-based; details: Staphylococcus epidermidis
Protocol: as §1
(§2) Antibacterial activity was examined by the disc-diffusion method under standard conditions using Mueller-Hinton II agar medium (Becton Dickinson) according to CLSI (previously NCCLS) guidelines. Antifungal activities were assessed using Mueller-Hinton agar + 2% glucose and 0.5 µg/mL Methylene Blue Dye Medium. Sterile filter paper discs (9 mm diameter, Whatman No 3 chromatography paper) were dripped with tested compound solutions (in DMSO) to load 400 μg of a given compound per disc. Dry discs were placed on the surface of appropriate agar medium. The results (diameter of the growth inhibition zone) were read after 18 h of incubation at 35 °C. Minimal Inhibitory Concentration (MIC) was tested by the twofold serial microdilution method (in 96-well microtiter plates) using Mueller-Hinton Broth medium (Beckton Dickinson) for bacteria or RPMI-1640 medium for Candida species according to CLSI guidelines. The stock solution of tested agent was prepared in DMSO and diluted in sterile water. Concentrations of tested agents ranged from 0.125 to 512 µg/mL. The final inoculum of all studied microorganisms was 10^5 CFU/ mL^−1 (colony forming units per mL). Minimal inhibitory concentrations (the lowest concentration of a tested agent that prevents visible growth of a microorganism) were read after 18 h (bacteria) or 24 h (yeasts) of incubation at 35 °C.

[2] = system: S. epidermidis MRSE 422/11; assay: MIC, hospital methicillin-resistant strain; format: cell-based; details: Staphylococcus epidermidis
Protocol: as §1, §2

[3] = system: S. epidermidis MRSE 405/11; assay: MIC, hospital methicillin-resistant strain; format: cell-based; details: Staphylococcus epidermidis
Protocol: as §1, §2

[4] = system: S. epidermidis MRSE 406/11; assay: MIC, hospital methicillin-resistant strain; format: cell-based; details: Staphylococcus epidermidis
Protocol: as §1, §2

[5] = system: S. epidermidis MRSE 411/11; assay: MIC, hospital methicillin-resistant strain; format: cell-based; details: Staphylococcus epidermidis
Protocol: as §1, §2

[6] = system: S. epidermidis MRSE 407/11; assay: MIC, hospital methicillin-resistant strain; format: cell-based; details: Staphylococcus epidermidis
Protocol: as §1, §2

[7] = system: S. epidermidis MRSE 404/11; assay: MIC, hospital methicillin-resistant strain; format: cell-based; details: Staphylococcus epidermidis
Protocol: as §1, §2

[8] = system: S. epidermidis MRSE 403/11; assay: MIC, hospital methicillin-resistant strain; format: cell-based; details: Staphylococcus epidermidis
Protocol: as §1, §2

[9] = system: S. epidermidis MRSE 413/11; assay: MIC, hospital methicillin-resistant strain; format: cell-based; details: Staphylococcus epidermidis
Protocol: as §1, §2

[10] = system: S. epidermidis MRSE 412/11; assay: MIC, hospital methicillin-resistant strain; format: cell-based; details: Staphylococcus epidermidis
Protocol: as §1, §2

[11] = system: S. epidermidis ATCC 35984; assay: MIC, twofold serial microdilution; format: cell-based; details: Staphylococcus epidermidis, ATCC35984; standard strain, 18 h, 35 °C
Protocol: as §1, §2

[12] = system: S. epidermidis ATCC 12228; assay: MIC, twofold serial microdilution; format: cell-based; details: Staphylococcus epidermidis, ATCC12228; standard strain, 18 h, 35 °C
Protocol: as §1, §2

S. aureus NCTC 4163 = assay: MIC, twofold serial microdilution; format: cell-based; details: Staphylococcus aureus, NCTC4163; standard strain, 18 h, 35 °C
Protocol: as §1, §2

S. aureus ATCC 6538 = assay: MIC, twofold serial microdilution; format: cell-based; details: Staphylococcus aureus, ATCC6538; standard strain, 18 h, 35 °C
Protocol: as §1, §2

M. luteus ATCC 10240 = assay: MIC, twofold serial microdilution; format: cell-based; details: Micrococcus luteus, ATCC10240; standard strain, 18 h, 35 °C
Protocol: as §1, §2

B. subtilis ATCC 6633 = assay: MIC, twofold serial microdilution; format: cell-based; details: Bacillus subtilis, ATCC6633; standard strain, 18 h, 35 °C
Protocol: as §1, §2

S. aureus ATCC 29213 = assay: MIC, twofold serial microdilution; format: cell-based; details: Staphylococcus aureus, ATCC29213; standard strain, 18 h, 35 °C
Protocol: as §1, §2

M. luteus ATCC 9341 = assay: MIC, twofold serial microdilution; format: cell-based; details: Micrococcus luteus, ATCC9341; standard strain, 18 h, 35 °C
Protocol: as §1, §2

S. aureus ATCC 25923 = assay: MIC, twofold serial microdilution; format: cell-based; details: Staphylococcus aureus, ATCC25923; standard strain, 18 h, 35 °C
Protocol: as §1, §2

B. cereus ATCC 11778 = assay: MIC, twofold serial microdilution; format: cell-based; details: Bacillus cereus, ATCC11778; standard strain, 18 h, 35 °C
Protocol: as §1, §2

[13] = Cytotoxicity against mock-infected MT-4 cells (MTT); format: cell-based, human; details: human, concentration reducing viability of mock-infected MT-4 cells by 50%
Protocol: (§3) Cell line supporting the multiplication of Human Immunodeficiency Virus type-1 (HIV-1) was the CD4+ human T-cells, derived from human hematological tumors, containing an integrated HTLV-1 genome (MT-4). Cells were purchased from American Type Culture Collection (ATCC). Human Immunodeficiency Virus type-1 (HIV-1) IIIB laboratory strain was obtained from the supernatant of the persistently infected H9/IIIB cells (NIH 1983).
Exponentially growing MT-4 cells were seeded at an initial density of 1 × 10^5 cells/mL in 96-well plates in RPMI-1640 medium, supplemented with 10% fetal bovine serum (FBS), 100 units/mL penicillin G and 100 μg/mL streptomycin. Cell cultures were then incubated at 37 °C in a humidified, 5% CO2 atmosphere, in the absence or presence of serial dilutions of tested compounds. Cell viability was determined after 96 h at 37 °C by the 3-(4,5-dimethylthiazol-2-yl)-2,5-diphenyl-tetrazolium bromide (MTT) method.

HIV-1 IIIB = assay: Anti-HIV-1 activity: protection of MT-4 cells from virus-induced cytopathogenicity (MTT); format: cell-based, Human Immunodeficiency Virus type-1; details: Human immunodeficiency virus 1, IIIB, MT4, 96 h; 50% protection of MT-4 cells from HIV-1 induced cytopathogenicity, MTT, 4-day incubation; read-out: HIV-1IIIB EC50
Description: as §3
The activity of compounds against HIV-1 was based on inhibition of virus-induced cytopathogenicity in MT-4 cell acutely infected with a multiplicity of infection (m.o.i.) of 0.01. Briefly, 50 μL of RPMI containing 1 × 10^4 MT-4 cells were added to each well of flat-bottom microtiter trays, containing 50 μL of RPMI without or with serial dilutions of test compounds. Then, 20 μL of a HIV-1 suspension containing 100 CCID50 were added. After a 4-day incubation at 37 °C, cell viability was determined by the MTT method.

E. faecalis ATCC 29212 = assay: MIC, twofold serial microdilution; format: cell-based; details: Enterococcus faecalis, ATCC29212; standard strain, 18 h, 35 °C
Protocol: as §1, §2

staphylococci = assay: MIC against staphylococci; format: cell-based; details: moderate activity
Protocol: as §1, §2

| MIC [1] [µg/mL] | MIC [2] [µg/mL] | MIC [3] [µg/mL] | MIC [4] [µg/mL] | MIC [5] [µg/mL] | MIC [6] [µg/mL] | MIC [7] [µg/mL] | MIC [8] [µg/mL] | MIC [9] [µg/mL] | MIC [10] [µg/mL] | melting point [°C] | MIC [11] [µg/mL] | MIC [12] [µg/mL] | MIC (S. aureus NCTC 4163) [µg/mL] | MIC (S. aureus ATCC 6538) [µg/mL] | MIC (M. luteus ATCC 10240) [µg/mL] | MIC (B. subtilis ATCC 6633) [µg/mL] | MIC (S. aureus ATCC 29213) [µg/mL] | EC50 (HIV-1 IIIB) [µM] | SMILES | CC50 at 96 h [13] [µM] | further results |
| --- | --- | --- | --- | --- | --- | --- | --- | --- | --- | --- | --- | --- | --- | --- | --- | --- | --- | --- | --- | --- | --- |
| 16 (≈ 49.7 µM) | 32 (≈ 99.4 µM) | 16 (≈ 49.7 µM) | 16 (≈ 49.7 µM) | 16 (≈ 49.7 µM) | 16 (≈ 49.7 µM) | 16 (≈ 49.7 µM) | 16 (≈ 49.7 µM) | 16 (≈ 49.7 µM) | 32 (≈ 99.4 µM) | 156 to 158 | 4 (≈ 12.4 µM) | 4 (≈ 12.4 µM) | 2 (≈ 6.22 µM) | 4 (≈ 12.4 µM) | 4 (≈ 12.4 µM) | 4 (≈ 12.4 µM) | 2 (≈ 6.22 µM) | > 14.6 | Cc1ccc(NC(=S)Nc2ccc(Cl)c([N+](=O)[O-])c2)cc1 [Compound 20, 1-(4-chloro-3-nitrophenyl)-3-(4-methylphenyl)thiourea] | 14.6 | MIC (standard strains): 2 to 4 µg/mL (≈ 6.22 to 12.4 µM); MIC (M. luteus ATCC 9341): 4 µg/mL (≈ 12.4 µM); MIC (S. aureus ATCC 25923): 2 µg/mL (≈ 6.22 µM); MIC (B. cereus ATCC 11778): 4 µg/mL (≈ 12.4 µM) |
| – | – | – | – | – | – | – | – | – | – | 149 to 150.5 | – | – | – | – | – | – | – | > 35 | COc1ccc(NC(=S)Nc2ccc(Cl)c([N+](=O)[O-])c2)cc1 [Compound 21, 1-(4-chloro-3-nitrophenyl)-3-(4-methoxyphenyl)thiourea] | 35 | activity against tested microorganisms (standard strains): devoid of activity |
| 4 (≈ 10.6 µM) | 8 (≈ 21.2 µM) | 4 (≈ 10.6 µM) | 8 (≈ 21.2 µM) | 4 (≈ 10.6 µM) | 4 (≈ 10.6 µM) | 8 (≈ 21.2 µM) | 4 (≈ 10.6 µM) | 8 (≈ 21.2 µM) | 8 (≈ 21.2 µM) | 67 to 69 | 4 (≈ 10.6 µM) | 4 (≈ 10.6 µM) | 4 (≈ 10.6 µM) | 2 (≈ 5.29 µM) | 2 (≈ 5.29 µM) | 4 (≈ 10.6 µM) | 2 (≈ 5.29 µM) | > 18.7 | CCCCc1ccc(NC(=S)Nc2ccc(Cl)c([N+](=O)[O-])c2)c(C)c1 [Compound 22, 1-(4-butyl-2-methylphenyl)-3-(4-chloro-3-nitrophenyl)thiourea] | 18.7 | MIC (standard strains): 2 to 4 µg/mL (≈ 5.29 to 10.6 µM); MIC (M. luteus ATCC 9341): 4 µg/mL (≈ 10.6 µM); MIC (S. aureus ATCC 25923): 2 µg/mL (≈ 5.29 µM); MIC (B. cereus ATCC 11778): 4 µg/mL (≈ 10.6 µM) |
| 32 (≈ 103 µM) | 32 (≈ 103 µM) | 32 (≈ 103 µM) | 64 (≈ 205 µM) | 32 (≈ 103 µM) | 32 (≈ 103 µM) | 32 (≈ 103 µM) | 32 (≈ 103 µM) | 32 (≈ 103 µM) | 32 (≈ 103 µM) | 144 to 146 | 32 (≈ 103 µM) | 32 (≈ 103 µM) | 16 (≈ 51.3 µM) | 16 (≈ 51.3 µM) | 16 (≈ 51.3 µM) | 16 (≈ 51.3 µM) | 16 (≈ 51.3 µM) | > 25.6 | O=[N+]([O-])c1cc(NC(=S)NCc2ccco2)ccc1Cl [Compound 30, 1-(4-chloro-3-nitrophenyl)-3-(furan-2-ylmethyl)thiourea] | 25.6 | MIC (M. luteus ATCC 9341): 16 µg/mL (≈ 51.3 µM); MIC (S. aureus ATCC 25923): 8 µg/mL (≈ 25.7 µM); MIC (E. faecalis ATCC 29212): 32 µg/mL (≈ 103 µM); MIC (B. cereus ATCC 11778): 16 µg/mL (≈ 51.3 µM); MIC range towards staphylococci (staphylococci): 8 to 16 µg/mL |

— PMC6222614, “Disubstituted 4-Chloro-3-nitrophenylthiourea Derivatives: Antimicrobial and Cytotoxic Studies” (Molecules : A Journal of Synthetic Chemistry and Natural …, 2018)
